Results: ChEMBL document CHEMBL2311459, “Naphthyridinone (NTD) integrase inhibitors: N1 protio and methyl combination substituent effects with C3 amide groups” (Bioorg Med Chem Lett, 2013)
pIC50: −log10 of the molar value.

Tested on: not listed separately
Assay: Ratio of plasma concentration in CD rat at 1 mg/kg, iv and 5 mg/kg, po after 24 hrs to IC50 for HIV in presence of 40 mg/mL of purified human serum albumin
Type: ADME, organism-based
Settings: in vivo
`Cn1c(=O)c(C(=O)NCCN2CCNC2=O)c(O)c2ncc(Cc3ccc(F)cc3)cc21` showed a Ratio of 0.
In the case of `CN(CCNC(=O)c1c(O)c2ncc(Cc3ccc(F)cc3)cc2n(C)c1=O)S(C)(=O)=O`, the Ratio was 1.7.
In the case of `C[C@H](CO)NC(=O)c1c(O)c2ncc(Cc3ccc(F)cc3)cc2[nH]c1=O`, the Ratio was 0.
With `C[C@@H](CO)NC(=O)c1c(O)c2ncc(Cc3ccc(F)cc3)cc2n(C)c1=O` the Ratio was 2.7.
In the case of `O=C(NCCO)c1c(O)c2ncc(Cc3ccc(F)cc3)cc2[nH]c1=O`, the Ratio was 0.8.
With `COCCNC(=O)c1c(O)c2ncc(Cc3ccc(F)cc3)cc2n(C)c1=O` the Ratio was 0.1.
Compound `COCCNC(=O)c1c(O)c2ncc(Cc3ccc(F)cc3)cc2[nH]c1=O` has a Ratio of 0.1.
Compound `Cn1c(=O)c(C(=O)NCCO)c(O)c2ncc(Cc3ccc(F)cc3)cc21` [GSK-364735] has a Ratio of 0.3.

Tested on: not listed separately
Assay: Ratio of plasma concentration in cynomolgus monkey at 1 mg/kg, iv and 5 mg/kg, po after 24 hrs to IC50 for HIV in presence of 40 mg/mL of purified human serum albumin
Type: ADME, organism-based
Settings: in vivo
With `CNC(=O)c1c(O)c2ncc(Cc3ccc(F)cc3)cc2n(C)c1=O` the Ratio was 9.2.

Tested on: not listed separately
Assay: Ratio of plasma concentration in dog at 1 mg/kg, iv and 5 mg/kg, po after 24 hrs to IC50 for HIV in presence of 40 mg/mL of purified human serum albumin
Type: ADME, organism-based
Settings: in vivo
Work on `C[C@@H](CO)NC(=O)c1c(O)c2ncc(Cc3ccc(F)cc3)cc2n(C)c1=O` yielded a Ratio of 0.
With `COCCNC(=O)c1c(O)c2ncc(Cc3ccc(F)cc3)cc2n(C)c1=O` the Ratio was 0.
For `CNC(=O)c1c(O)c2ncc(Cc3ccc(F)cc3)cc2n(C)c1=O`, the Ratio was 0.8.

Tested on: not listed separately
Assay: AUC in CD rat at 5 mg/kg, po
Type: ADME, organism-based
Design: dose 5 mg/kg, route oral
Settings: plasma
Work on `Cn1c(=O)c(C(=O)NCCN2CCNC2=O)c(O)c2ncc(Cc3ccc(F)cc3)cc21` yielded an AUC of 3550 ng·h/mL.
For `CN(CCNC(=O)c1c(O)c2ncc(Cc3ccc(F)cc3)cc2n(C)c1=O)S(C)(=O)=O`, the AUC was 5810 ng·h/mL.
In the case of `C[C@H](CO)NC(=O)c1c(O)c2ncc(Cc3ccc(F)cc3)cc2[nH]c1=O`, the AUC was 6370 ng·h/mL.
With `C[C@@H](CO)NC(=O)c1c(O)c2ncc(Cc3ccc(F)cc3)cc2n(C)c1=O` the AUC was 22600 ng·h/mL.
For `O=C(NCCO)c1c(O)c2ncc(Cc3ccc(F)cc3)cc2[nH]c1=O`, the AUC was 3060 ng·h/mL.
In the case of `COCCNC(=O)c1c(O)c2ncc(Cc3ccc(F)cc3)cc2n(C)c1=O`, the AUC was 1850 ng·h/mL.
`COCCNC(=O)c1c(O)c2ncc(Cc3ccc(F)cc3)cc2[nH]c1=O` gave an AUC of 1650 ng·h/mL.
`Cn1c(=O)c(C(=O)NCCO)c(O)c2ncc(Cc3ccc(F)cc3)cc21` [GSK-364735] showed an AUC of 22800 ng·h/mL.

Tested on: Human immunodeficiency virus
Assay: Antiviral activity against HIV in presence of 40 mg/mL of purified human serum albumin
Type: functional, organism-based
Settings: Human immunodeficiency virus 1
`C[C@H](O)CNC(=O)c1c(O)c2ncc(Cc3ccc(F)cc3)cc2[nH]c1=O` showed a pIC50 of 7.11.
Work on `Cn1c(=O)c(C(=O)NCCN2CCNC2=O)c(O)c2ncc(Cc3ccc(F)cc3)cc21` yielded a pIC50 of 8.05.
`CN(CCNC(=O)c1c(O)c2ncc(Cc3ccc(F)cc3)cc2n(C)c1=O)S(C)(=O)=O` showed a pIC50 of 8.15.
Compound `C[C@H](CO)NC(=O)c1c(O)c2ncc(Cc3ccc(F)cc3)cc2[nH]c1=O` has a pIC50 of 7.48.
Compound `C[C@@H](CO)NC(=O)c1c(O)c2ncc(Cc3ccc(F)cc3)cc2n(C)c1=O` has a pIC50 of 7.82.
`O=C(NCCO)c1c(O)c2ncc(Cc3ccc(F)cc3)cc2[nH]c1=O` gave a pIC50 of 7.29.
With `COCCNC(=O)c1c(O)c2ncc(Cc3ccc(F)cc3)cc2n(C)c1=O` the pIC50 was 7.32.
`COCCNC(=O)c1c(O)c2ncc(Cc3ccc(F)cc3)cc2[nH]c1=O` gave a pIC50 of 7.46.
Work on `CNC(=O)c1c(O)c2ncc(Cc3ccc(F)cc3)cc2n(C)c1=O` yielded a pIC50 of 7.26.
Compound `Cn1c(=O)c(C(=O)NCCO)c(O)c2ncc(Cc3ccc(F)cc3)cc21` [GSK-364735] has a pIC50 of 7.70.

Tested on: not listed separately
Assay: AUC in dog at 5 mg/kg, po
Type: ADME, organism-based, Canis lupus familiaris
Design: dose 5 mg/kg, route oral
Settings: plasma
Work on `C[C@@H](CO)NC(=O)c1c(O)c2ncc(Cc3ccc(F)cc3)cc2n(C)c1=O` yielded an AUC of 1120 ng·h/mL.
In the case of `COCCNC(=O)c1c(O)c2ncc(Cc3ccc(F)cc3)cc2n(C)c1=O`, the AUC was 1240 ng·h/mL.
Compound `CNC(=O)c1c(O)c2ncc(Cc3ccc(F)cc3)cc2n(C)c1=O` has an AUC of 13200 ng·h/mL.

Tested on: not listed separately
Assay: Plasma clearance in CD rat at 1 mg/kg, iv and 5 mg/kg, po
Type: ADME, organism-based
Settings: not given
`Cn1c(=O)c(C(=O)NCCO)c(O)c2ncc(Cc3ccc(F)cc3)cc21` [GSK-364735] showed a clearance of 3.2 mL/min/kg.

Tested on: Human immunodeficiency virus
Assay: Antiviral activity against HIV infected in human MT4 cells
Type: functional, organism-based
Settings: Human immunodeficiency virus 1, MT4
For `Cn1c(=O)c(C(=O)NCCN2CCNC2=O)c(O)c2ncc(Cc3ccc(F)cc3)cc21`, the pIC50 was 7.96.
Work on `CN(CCNC(=O)c1c(O)c2ncc(Cc3ccc(F)cc3)cc2n(C)c1=O)S(C)(=O)=O` yielded a pIC50 of 8.15.
Work on `C[C@H](CO)NC(=O)c1c(O)c2ncc(Cc3ccc(F)cc3)cc2[nH]c1=O` yielded a pIC50 of 7.70.
In the case of `O=C(NCCO)c1c(O)c2ncc(Cc3ccc(F)cc3)cc2[nH]c1=O`, the pIC50 was 7.10.
With `Cn1c(=O)c(C(=O)NCCO)c(O)c2ncc(Cc3ccc(F)cc3)cc21` [GSK-364735] the pIC50 was 8.30.

Tested on: Human immunodeficiency virus
Assay: Antiviral activity against HIV
Type: functional, organism-based
Settings: Human immunodeficiency virus 1
Work on `C[C@H](O)CNC(=O)c1c(O)c2ncc(Cc3ccc(F)cc3)cc2[nH]c1=O` yielded a pIC50 of 8.15.
`Cn1c(=O)c(C(=O)NCCN2CCNC2=O)c(O)c2ncc(Cc3ccc(F)cc3)cc21` showed a pIC50 of 8.70.
With `CN(CCNC(=O)c1c(O)c2ncc(Cc3ccc(F)cc3)cc2n(C)c1=O)S(C)(=O)=O` the pIC50 was 9.00.
Compound `C[C@H](CO)NC(=O)c1c(O)c2ncc(Cc3ccc(F)cc3)cc2[nH]c1=O` has a pIC50 of 8.15.
`C[C@@H](CO)NC(=O)c1c(O)c2ncc(Cc3ccc(F)cc3)cc2n(C)c1=O` showed a pIC50 of 9.00.
With `O=C(NCCO)c1c(O)c2ncc(Cc3ccc(F)cc3)cc2[nH]c1=O` the pIC50 was 8.22.
For `COCCNC(=O)c1c(O)c2ncc(Cc3ccc(F)cc3)cc2[nH]c1=O`, the pIC50 was 8.30.
Compound `CNC(=O)c1c(O)c2ncc(Cc3ccc(F)cc3)cc2n(C)c1=O` has a pIC50 of 9.00.
`Cn1c(=O)c(C(=O)NCCO)c(O)c2ncc(Cc3ccc(F)cc3)cc21` [GSK-364735] showed a pIC50 of 8.70.

Tested on: not listed separately
Assay: Half life in dog at 1 mg/kg, iv and 5 mg/kg, po
Type: ADME, organism-based, Canis lupus familiaris
Settings: in vivo
Work on `CNC(=O)c1c(O)c2ncc(Cc3ccc(F)cc3)cc2n(C)c1=O` yielded a half-life of 1.6 h.

Tested on: not listed separately
Assay: Plasma clearance in cynomolgus monkey at 1 mg/kg, iv and 5 mg/kg, po
Type: ADME, organism-based, Macaca fascicularis
Settings: not given
For `CNC(=O)c1c(O)c2ncc(Cc3ccc(F)cc3)cc2n(C)c1=O`, the clearance was 2 mL/min/kg.

Tested on: not listed separately
Assay: Plasma clearance in dog at 1 mg/kg, iv and 5 mg/kg, po
Type: ADME, organism-based, Canis lupus familiaris
Settings: not given
In the case of `CNC(=O)c1c(O)c2ncc(Cc3ccc(F)cc3)cc2n(C)c1=O`, the clearance was 8.6 mL/min/kg.

Tested on: not listed separately
Assay: Half life in CD rat at 1 mg/kg, iv and 5 mg/kg, po
Type: ADME, organism-based
Settings: in vivo
In the case of `COCCNC(=O)c1c(O)c2ncc(Cc3ccc(F)cc3)cc2n(C)c1=O`, the half-life was 4 h.

Tested on: not listed separately
Assay: Half life in cynomolgus monkey at 1 mg/kg, iv and 5 mg/kg, po
Type: ADME, organism-based, Macaca fascicularis
Settings: in vivo
`CNC(=O)c1c(O)c2ncc(Cc3ccc(F)cc3)cc2n(C)c1=O` showed a half-life of 3.9 h.

Tested on: not listed separately
Assay: AUC (0 to 24 hrs) in cynomolgus monkey at 5 mg/kg, po
Type: ADME, organism-based, Macaca fascicularis
Design: time < 24 hr, dose 5 mg/kg, route oral
Settings: plasma
In the case of `CNC(=O)c1c(O)c2ncc(Cc3ccc(F)cc3)cc2n(C)c1=O`, the AUC(0-t) at 24 h was 38600 ng·h/mL.

Biological target: Human immunodeficiency virus type 1 integrase (Human immunodeficiency virus 1, UniProt Q7ZJM1)
Sequence (Q7ZJM1 whole entry): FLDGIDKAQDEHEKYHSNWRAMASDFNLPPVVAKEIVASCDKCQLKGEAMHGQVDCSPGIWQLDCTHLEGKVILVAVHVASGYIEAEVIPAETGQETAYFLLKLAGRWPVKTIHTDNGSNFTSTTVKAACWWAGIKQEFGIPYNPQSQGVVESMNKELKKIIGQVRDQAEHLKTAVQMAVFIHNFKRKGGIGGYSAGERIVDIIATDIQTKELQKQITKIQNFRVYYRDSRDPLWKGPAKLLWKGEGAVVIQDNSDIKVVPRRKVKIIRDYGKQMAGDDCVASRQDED
Assay: Inhibition of HIV1 integrase strand transfer activity
Settings: not given
In the case of `C[C@H](O)CNC(=O)c1c(O)c2ncc(Cc3ccc(F)cc3)cc2[nH]c1=O`, the pIC50 was 8.52.
Compound `Cn1c(=O)c(C(=O)NCCN2CCNC2=O)c(O)c2ncc(Cc3ccc(F)cc3)cc21` has a pIC50 of 8.30.
Work on `CN(CCNC(=O)c1c(O)c2ncc(Cc3ccc(F)cc3)cc2n(C)c1=O)S(C)(=O)=O` yielded a pIC50 of 8.30.
Compound `C[C@H](CO)NC(=O)c1c(O)c2ncc(Cc3ccc(F)cc3)cc2[nH]c1=O` has a pIC50 of 8.30.
With `C[C@@H](CO)NC(=O)c1c(O)c2ncc(Cc3ccc(F)cc3)cc2n(C)c1=O` the pIC50 was 8.40.
`O=C(NCCO)c1c(O)c2ncc(Cc3ccc(F)cc3)cc2[nH]c1=O` showed a pIC50 of 8.30.
With `COCCNC(=O)c1c(O)c2ncc(Cc3ccc(F)cc3)cc2n(C)c1=O` the pIC50 was 8.40.
Work on `COCCNC(=O)c1c(O)c2ncc(Cc3ccc(F)cc3)cc2[nH]c1=O` yielded a pIC50 of 8.30.
`CNC(=O)c1c(O)c2ncc(Cc3ccc(F)cc3)cc2n(C)c1=O` gave a pIC50 of 8.40.
With `Cn1c(=O)c(C(=O)NCCO)c(O)c2ncc(Cc3ccc(F)cc3)cc21` [GSK-364735] the pIC50 was 8.10.

Tested on: not listed separately
Assay: Therapeutic index, ratio of cytotoxicity against human MT4 cells to antiviral activity against HIV
Type: cell-based
Settings: read-out: TI
For `Cn1c(=O)c(C(=O)NCCN2CCNC2=O)c(O)c2ncc(Cc3ccc(F)cc3)cc21`, the selectivity ratio was 1620.
For `CN(CCNC(=O)c1c(O)c2ncc(Cc3ccc(F)cc3)cc2n(C)c1=O)S(C)(=O)=O`, the selectivity ratio was greater than 7200.
`C[C@H](CO)NC(=O)c1c(O)c2ncc(Cc3ccc(F)cc3)cc2[nH]c1=O` gave a selectivity ratio greater than 400.
`O=C(NCCO)c1c(O)c2ncc(Cc3ccc(F)cc3)cc2[nH]c1=O` showed a selectivity ratio greater than 250.
Work on `Cn1c(=O)c(C(=O)NCCO)c(O)c2ncc(Cc3ccc(F)cc3)cc21` [GSK-364735] yielded a selectivity ratio greater than 2000.
